{"source": "patent US12697330B2", "about": "“Therapeutic methods using vadadustat” (Akebia Therapeutics, Inc., priority 2021, dated 2026)", "test": "Phase 1b study: pharmacokinetics of vadadustat and its metabolites in plasma of hemodialysis subjects with anemia associated with CKD", "type": "in vivo, human", "procedure": "The primary objective of the study was to assess the pharmacokinetics (PK) of vadadustat 600, 750, and 900 mg daily, and IV ESA (darbepoetin alfa or epoetin alfa) in hemodialysis subjects with anemia associated with CKD. Additional objectives included to evaluate the pharmacodynamics (PD) of vadadustat 600, 750, and 900 mg daily, and IV ESA (darbepoetin alfa or epoetin alfa) in hemodialysis subjects with anemia associated with CKD and to assess the safety and tolerability of vadadustat 600, 750, and 900 mg daily and IV ESA (darbepoetin alfa or epoetin alfa) in hemodialysis subjects with anemia associated with CKD.\nStudy Design. This was a Phase 1b, randomized, open-label study to evaluate the PK, PD, safety, and tolerability of vadadustat 600, 750, or 900 mg daily, or ESA (darbepoetin alfa or epoetin alfa) in hemodialysis subjects with anemia associated with CKD. The study included a 28-day Screening and Randomization period, a 10-day Treatment Period, and a 30-day Safety Follow up Period after the last dose of study drug (vadadustat or ESA). For subjects randomized to vadadustat, study duration also included an ESA washout period of a minimum of 5 days for epoetin alfa or 9 days for darbepoetin alfa or 9-day ESA Washout period prior to dosing on Day 1.\nA total of 46 subjects were enrolled in the study. Written informed consent were obtained before any screening procedures were performed. Subjects were screened within 28 days prior to randomization. Eligible subjects were randomized in a 2:2:2:1 ratio to 1 of 4 treatment groups (600, 750, or 900 mg vadadustat QD, or ESA. Randomized subjects began their 10-day Treatment Period within 36 days of initiating screening.\nEligible subjects were randomly assigned in a 2:2:2:1 ratio to 1 of 4 treatment groups: Group 1—vadadustat 600 mg once daily (QD); Group 2—vadadustat 750 mg QD; Group 3—vadadustat 900 QD; and Group 4—IV ESA. Randomization was stratified by the mean weekly ESA dose calculated over a period of 8 weeks prior to the randomization visit. For darbepoetin, the groups were divided into low dose darbepoetin alfa group (<0.5 μg/kg/week) and high dose darbepoetin alfa group (>0.5 to <1.5 μg/kg/week). For epoetin, the groups were divided into low dose epoetin alfa group (≤90 U/kg/week) and high dose epoetin alfa group (>90 to <300 U/kg/week).\nSubjects began dosing on Day 1 and took vadadustat at approximately the same time each day for a total of 10 days. On Day 1 and Day 8, subjects took vadadustat after all predose procedures are completed and within 30 minutes prior to the start of dialysis so that the 1-hour post dose blood sample for PK and PD was collected during dialysis. Vadadustat could be taken with or without food. Subjects were instructed to make every effort to take the drug consistently, either with or without food. Subjects were instructed to swallow the tablets whole with water.\nPK and EPO Sample. For each vadadustat treatment group, blood samples for vadadustat PK (and its metabolites) and EPO were collected at the following time points: Day 1: predose, and at 1, 2, 3, 4, 5, 8, and 11 hours post dose; Day 2: 24 hours (−2 hours) post Day 1 dose; Day 6: blood sample for EPO analysis only was collected predose on Day 6; Day 8: predose, and at 1, 2, 3, 4, 5, 8, 11 hours post dose, Day 10 or EOT: predose. For the ESA treatment group, blood samples for analysis of EPO were collected at the following time points: Day 1: predose, and at 0.25, 1, 2, 3, 4, 5, 8, and 11 hours post dose; Day 2: 24 hours (−2 hours) post Day 1 dose.\nPrimary Endpoints. […]", "data": [{"smiles": "O=C(O)CNC(=O)c1ncc(-c2cccc(Cl)c2)cc1O", "note": "[vadadustat, {[5-(3-chlorophenyl)-3-hydroxypyridine-2-carbonyl]amino}acetic acid]", "values": [{"measurement": "vadadustat exposure (AUC0-24 and Cmax) versus dose", "setting": "Day 1 and Day 8", "result": "dose-dependent increase"}, {"measurement": "exposure for vadadustat, as measured by AUC0-24, versus dose", "setting": "Day 1 dosing, 600 to 750 to 900 mg", "result": "increased with increasing dose"}, {"measurement": "Mean apparent total body clearance (CL/F) values across doses", "setting": "Day 8, 600, 750, 900 mg", "result": "similar"}, {"measurement": "Tmax", "setting": "human, plasma, oral, 600, 750, and 900 mg groups, Day 1 and Day 8, during the dialysis, read-out: median Tmax of vadadustat", "result": "2 to 3", "unit": "h"}, {"measurement": "accumulation versus dose", "setting": "most pronounced in the 900 mg vadadustat treatment group", "result": "dose-dependent increase in accumulation"}]}]}
